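Assay format: 96-well plates, 48-hour exposure. Abbreviation: GI50, concentration required for 50% inhibition of growth. TGI denotes the concentration required for complete inhibition of growth.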
What was measured:
Test in all cases: growth of human tumour cells (NCI), 48 h
[1] = system: HCT-116 colon
[2] = system: PC-3 prostate
[3] = system: A498 renal
[4] = system: BT-549 breast
[5] = system: SW-620 colon
[6] = system: SNB-19 CNS
[7] = system: MDA-MB-231 breast
[8] = system: KM12 colon
[9] = system: U251 CNS
[10] = system: TK-10 renal
[11] = system: UACC-62 melanoma
[12] = system: LOX IMVI melanoma
[13] = system: OVCAR-8 ovarian
[14] = system: MOLT-4 leukemia
[15] = system: EKVX NSCLC
[16] = system: UACC-257 melanoma
[17] = system: SNB-75 CNS
[18] = system: SK-MEL-2 melanoma
[19] = system: HCC-2998 colon
[20] = system: T-47D breast
[21] = system: SF-268 CNS
[22] = system: SF-539 CNS
[23] = system: SK-MEL-28 melanoma
[24] = system: HS 578T breast
[25] = system: K-562 leukemia
[26] = system: RPMI-8226 leukemia
[27] = system: UO-31 renal
[28] = system: CCRF-CEM leukemia
[29] = system: SK-MEL-5 melanoma
[30] = system: NCI-H23 lung
[31] = system: DU-145 prostate
[32] = system: ACHN renal
[33] = system: NCI-H226 lung
[34] = system: CAKI-1 renal
[35] = system: 786-0 renal
[36] = system: SK-OV-3 ovarian
[37] = system: M14 melanoma
[38] = system: HOP-92 NSCLC
[39] = system: SF-295 CNS
[40] = system: RXF 393 renal
[41] = system: NCI-H460 lung
[42] = system: HOP-62 NSCLC
[43] = system: COLO 205 colon
[44] = system: NCI-H522 lung
[45] = system: SN12C renal
[46] = system: IGROV1 ovarian
[47] = system: MCF7 breast
[48] = system: NCI/ADR-RES ovarian
[49] = system: A549 NSCLC
[50] = system: HL-60(TB) leukemia
[51] = system: MDA-MB-435
[52] = system: HT29 colon
[53] = system: OVCAR-5 ovarian
[54] = system: OVCAR-4 ovarian
[55] = system: OVCAR-3 ovarian
[56] = system: HCT-15 colon

Compound `O=C(Nc1cccc(C(F)(F)F)c1)c1cccc(NC2=C(Cl)C(=O)N(Cc3ccccc3)C2=O)c1` has a GI50 [1] of 13.5 µM, a TGI [1] of 39.2 µM and a GI50 [2] of 3.1 µM. It also gave a TGI [2] of 14.3 µM, a GI50 [3] of 40.3 µM and a TGI [3] of 90.7 µM. The GI50 [4] was 18.8 µM, the TGI [4] was 64.2 µM and the GI50 [5] was 38.4 µM. It also gave a TGI [5] of over 100 µM, a GI50 [6] of 36.8 µM and a TGI [6] of over 100 µM. For the same compound, the GI50 [7] was 5.38 µM, the TGI [7] was over 100 µM and the GI50 [8] was 44.8 µM. For the same compound, the TGI [8] was over 100 µM, the GI50 [9] was 6.17 µM and the TGI [9] was over 100 µM. For the same compound, the GI50 [10] was 19.5 µM, the TGI [10] was over 100 µM and the GI50 [11] was 12.1 µM. The TGI [11] was 29.9 µM, the GI50 [12] was 3.92 µM and the TGI [12] was 57.5 µM. For the same compound, the GI50 [13] was 15.7 µM, the TGI [13] was 66.1 µM and the GI50 [14] was 2.73 µM. The TGI [14] was over 100 µM, the GI50 [15] was 68.5 µM and the TGI [15] was over 100 µM. The GI50 [16] was 12.4 µM, the TGI [16] was 38.5 µM and the GI50 [17] was 57.3 µM. The TGI [17] was over 100 µM, the GI50 [18] was 14.6 µM and the TGI [18] was 40.1 µM. For the same compound, the GI50 [19] was 16.8 µM, the TGI [19] was 32.7 µM and the GI50 [20] was 6.28 µM. The TGI [20] was 89.9 µM, the GI50 [21] was 5.96 µM and the TGI [21] was 40.9 µM. The GI50 [22] was 26 µM, the TGI [22] was 62.7 µM and the GI50 [23] was 45.1 µM. The TGI [23] was over 100 µM, the GI50 [24] was 43.8 µM and the TGI [24] was over 100 µM. For the same compound, the GI50 [25] was 3.02 µM, the TGI [25] was 17.6 µM and the GI50 [26] was 1.89 µM. For the same compound, the TGI [26] was 6.51 µM, the GI50 [27] was 11.7 µM and the TGI [27] was over 100 µM. The GI50 [28] was 1.87 µM, the TGI [28] was 51.6 µM and the GI50 [29] was 18 µM. For the same compound, the TGI [29] was 38.2 µM, the GI50 [30] was 25.4 µM and the TGI [30] was 64.8 µM. For the same compound, the GI50 [31] was 37.2 µM, the TGI [31] was over 100 µM and the GI50 [32] was 15.8 µM. For the same compound, the TGI [32] was 85.2 µM, the GI50 [33] was 4.51 µM and the TGI [33] was 65.5 µM. For the same compound, the GI50 [34] was 6.5 µM, the TGI [34] was over 100 µM and the GI50 [35] was 27.4 µM. The TGI [35] was over 100 µM, the GI50 [36] was 79.1 µM and the TGI [36] was over 100 µM. For the same compound, the GI50 [37] was 3.68 µM, the TGI [37] was 14.3 µM and the GI50 [38] was 2.89 µM. The TGI [38] was 32.7 µM, the GI50 [39] was 20.2 µM and the TGI [39] was over 100 µM. For the same compound, the GI50 [40] was 2.39 µM, the TGI [40] was 9.29 µM and the GI50 [41] was 8.76 µM. The TGI [41] was over 100 µM, the GI50 [42] was 40.1 µM and the TGI [42] was over 100 µM. For the same compound, the GI50 [43] was 32.3 µM, the TGI [43] was over 100 µM and the GI50 [44] was 4.88 µM. The TGI [44] was 23.5 µM, the GI50 [45] was 14.9 µM and the TGI [45] was over 100 µM. For the same compound, the GI50 [46] was 1.92 µM, the TGI [46] was 18.3 µM and the GI50 [47] was 3.28 µM. For the same compound, the TGI [47] was over 100 µM, the GI50 [48] was 18.1 µM and the TGI [48] was 53.5 µM. For the same compound, the GI50 [49] was 17 µM, the TGI [49] was over 100 µM and the GI50 [50] was 5.36 µM. It also gave a TGI [50] of 28.7 µM, a GI50 [51] of 8.69 µM and a TGI [51] of over 100 µM. The GI50 [52] was 40.1 µM, the TGI [52] was over 100 µM and the GI50 [53] was over 100 µM. It also gave a TGI [53] of over 100 µM, a GI50 [54] of 52.2 µM and a TGI [54] of over 100 µM. For the same compound, the GI50 [55] was 8 µM, the TGI [55] was over 100 µM and the GI50 [56] was 5.1 µM. It also gave a TGI [56] of over 100 µM.

— PubChem BioAssay (NCI)
